IC50, EC50 and CC50 data for one compound are collected here from article PMC5740381 (Antimicrobial Agents and Chemotherapy, 2017).

Data set [1] has as its system HCV genotype 1 to 6 NS3/4A proteases. The data set can be described thus: HCV NS3/4A protease biochemical assay, all genotypes. The conditions noted are these: read-out: IC50, range over proteases. The arrangement: species or system Hepatitis C virus. The text has this:
. […] Genes encoding NS3/4A were derived from laboratory strains 1a-H77 (GenBank accession number NC_004102) and 1b-N (GenBank accession number AF139594) or from clinical samples from patients infected with genotype 2a, 2b, 3a, or 4a. All patients provided written informed consent. Clinical studies were designed according to Good Clinical Practice guidelines, the Declaration of Helsinki, and applicable local regulations, with independent ethics committee or institutional review board approval for all study sites. The genotype 5a NS3/4A gene sequence was synthetically constructed based on the sequence of the clinical isolate SA13 (GenBank accession number AF064490) ([48]), whereas the genotype 6a NS3/4A gene sequence was synthetically constructed based on a consensus sequence derived from the alignment of 15 genotype 6a sequences available in GenBank. The NS3/4A genes were each cloned into the protein expression vector pET14b (Novagen, Madison, WI), and a clone with an NS3/4A protease sequence that matched the consensus sequence for each sample was subsequently selected for protein expression and purification. Protease activity was measured by continuous monitoring of the fluorescence change associated with the cleavage of a fluorogenic depsipeptide (EDANS/DABCYL) substrate using a purified recombinant HCV NS3/4A protease as described previously ([49]). […]

Data set [2] relates to HCV replicons with genotype 3a patient proteases. The data set can be described thus: Transient replicon assay with proteases from HCV-infected patients. Format: cell-based. The note with it: Hepatitis C virus, subtype 3a, no polymorphism, 2 samples. An excerpt:
(§1) […]. Each of the NS3 gene sequences from genotypes 1, 2, and 4, with the exception of two genotype 2b sequences, was derived from serum or plasma from an HCV-infected patient by bulk PCR amplification, producing a population of sequences representing the viral quasispecies. Two genotype 2b sequences were synthesized based on the consensus sequences of the respective samples. One genotype 3a sequence was synthesized based on a consensus sequence from the sequences available in the Los Alamos HCV sequence database, and another genotype 3a sequence was a clonal sequence derived from a patient sample. The genotype 5a sequence (strain SA13) was synthesized based on the published sequence of the HCV isolate ([48]).
(§2) Transient replicons containing NS3 from clinical samples from HCV genotype 1a- and 1b-infected patients were described previously ([28]). For the transient replicons containing NS3/4A from samples from genotype 3a-infected patients, the first 251 amino acids of NS3 and the region encoding NS4A amino acids 21 to 32 (numbered relative to the NS4A coding region) from these HCV samples were cloned to replace the corresponding residues from the backbone of a genotype 1b Con1 shuttle vector. A genotype 1b Con1 transient replicon shuttle vector was also used to clone the region encoding the first 251 amino acids of NS3 from samples from genotype 4a- or 4d-infected patients in place of the corresponding region from HCV genotype 1b Con1.
(§3) For the analysis of NS3 sequences from patients, we defined a polymorphism to be an amino acid difference in the sequence of a baseline sample relative to the sequence of the appropriate HCV subtype reference sequence: genotype 1a H77 (GenBank accession number NC_004102), genotype 1b Con1 (GenBank accession number AJ238799), genotype 2a JFH-1 (GenBank accession number AB047639), genotype 2b HC-J8 (GenBank accession number D10988), genotype 3a S52 (GenBank accession number GU814263), genotype 4a ED43 (GenBank accession number GU814265), genotype 4d QC382 (GenBank accession number FJ462437), and genotype 5a SA13 (GenBank accession number AF064490). Polymorphisms were assessed at the following NS3 amino acid positions that are associated with resistance to the HCV PI class: 36, 43, 54, 55, 56, 80, 122, 155, 156, and 168. All DNA sequencing was performed by the Sanger sequencing method.

For data set [3], the system named is HCV replicons with genotype 4d patient proteases. The description is as above. Format: cell-based. The conditions noted are these: Hepatitis C virus, 96 h, subtype 4d, no polymorphism, 3 samples.
Description: as §1, §2, §3

Data set [4] relates to HCV replicons with genotype 1a patient proteases. The description is as above. The format is cell-based. The note with it: Hepatitis C virus.
Description: as §1, §2, §3

The subject of data set [5] is HCV replicons with genotype 1b patient proteases. Described as above. Format: cell-based. The note with it: Hepatitis C virus, subtype 1b, no polymorphism, 9 samples.
Description: as §1, §2, §3

The subject of data set [6] is HCV subgenomic stable replicons containing proteases from genotypes 1 to 6. The data set is described as follows: Stable HCV replicon assay, several genotypes. Format: cell-based. The note with it: Hepatitis C virus, Huh-7, read-out: EC50, range over stable replicons. The text has this: Five of these nine cell lines have been described previously, including those transfected with genotypes 1a H77, 1b Con1, 3a, 4a, and 6a ([28]). […] The genotype 2b and 6e NS3 sequences were each synthetically constructed based on a consensus sequence derived from the alignment of 15 genotype 2b and 4 genotype 6e sequences, respectively. All replicon constructs were bicistronic subgenomic replicons similar to those described by Bartenschlager and coworkers, and the replicon cell lines were generated by introducing these constructs into cells of an Huh-7 human hepatoma-derived cell line ([50]). The inhibitory effect of the PIs on HCV replication in replicon cells was determined in Dulbecco's modified Eagle medium containing 5% fetal bovine serum with or without 40% human plasma (Bioreclamation, Westbury, NY). The EC50s were determined using nonlinear regression curve fitting as described previously ([33]).
Background: In antiviral work, replicon cells carry a viral genome segment that copies itself.

The nature of a further data set: MTT cytotoxicity assay. The note with it: human. As for the experimental part:
For MT4 cells, 10,000 cells/well were plated immediately before the addition of glecaprevir. The rest of the assay was performed as described previously ([33]).
(In general: Formazan colour is commonly taken as a measure of viable cells.)

Values joined by “and” are separate entries in the source; they are usually repeats but may differ in a detail not shown here. Identical values can stand only once. Like-named read-outs stand apart in the source and are kept apart here.

A word on the IC50: it is the midpoint of a concentration-inhibition curve. The EC50 is the concentration at which the effect is half-maximal. A word on the CC50: it is the concentration giving 50% cytotoxicity. Higher therefore signals lower toxicity to the cells. For the compound `CC(C)(C)[C@@H]1NC(=O)O[C@@H]2CCC[C@H]2OC/C=C/C(F)(F)c2nc3ccccc3nc2O[C@@H]2C[C@@H](C(=O)N[C@]3(C(=O)NS(=O)(=O)C4(C)CC4)C[C@H]3C(F)F)N(C2)C1=O` [Glecaprevir, (3aR,7S,10S,12R,21E,24aR)-7-tert-butyl-N-[(1R,2R)-2-(difluoromethyl)-1-{[(1-methylcyclopropyl)sulfonyl]carbamoyl}cyclopropyl]-20,20-difluoro-5,8-dioxo-2,3,3a,5,6,7,8,11,12,20,23,24a-dodecahydro-1H,10H-9,12-methanocyclopenta[18,19][1,10,17,3,6]trioxadiazacyclononadecino[11,12-b]quinoxaline-10-carboxamide], in data set [1], the IC50 lay in the range of 3.5 to 11.3 nM. For the same compound, the EC50 in data set [2] (read-out: EC50 Median) is 2.3 nM; in data set [2] (read-out: EC50 Range), 0.71 to 3.8 nM; in data set [3] (read-out: EC50 Median), 0.17 nM; in data set [3] (read-out: EC50 Range), 0.13 to 0.25 nM; in data set [4] (all genotype 1a clinical samples, read-out: Median EC50), 0.08 nM; in data set [4] (subtype 1a, Q80K, 5 samples, read-out: EC50 Median), 0.09 nM. Also, the concentration giving a half-maximal response (EC50) in data set [4] (subtype 1a, Q80K, 5 samples, read-out: EC50 Range) is 0.07 to 0.1 nM; in data set [4] (subtype 1a, Q80N, 1 sample, read-out: EC50 Median), 0.09 nM; in data set [4] (subtype 1a, no NS3 polymorphism, 5 samples, read-out: EC50 Median), 0.06 nM; in data set [4] (subtype 1a, no NS3 polymorphism, 5 samples, read-out: EC50 Range), 0.05 to 0.12 nM; in data set [5] (read-out: EC50 Median) it was 0.29 nM; in data set [5] (read-out: EC50 Range), 0.2 to 0.68 nM. The EC50 in data set [6] fell in the range of 0.21 to 4.6 nM. In addition, in “MTT cytotoxicity assay”, the CC50 is 72 µM and 60 µg/mL.
